Laboratory results taken from patent US20140220556A1, “Method of Design and Synthesis of a New Drug” (priority 2013, published 2014).

How the values were obtained:
[1] = system: HeLa cells; assay: Effect of Antican on HeLa cells; format: cell-based
Source text: In establishing the minimum concentration of Antican that could slow the growth of cells, a comparison was made between the number of surviving cells and the concentration of Antican in the solution.

[2] = system: benzidine skin sarcoma; assay: Anticancer activity on benzidine skin sarcoma; format: in vivo, Barbados mice
Description: Before applying it to the silica gel, 7 mL of a solution of 2% benzidine and 0.9% sodium chloride were added until an opalescent suspension was formed (1 g silica gel for 5 mL NaCl solution). Twenty-five Barbados mice of both sexes with weight of 18-20 g that were kept on a vivarium diet were administered benzidine and phorbol acetate immobilized on silica gel subcutaneously near the neck. After two weeks, 18 animals had developed tumors of different sizes in the form of a small bump on the neck near the silica gel granulomas. Each group of animals was administered the corresponding compound parenterally, at a dose of 100 μg/kg weight, twice a day for two weeks, starting 16 days after administration of the carcinogen.

[3] = system: Ehrlich's ascites adenocarcinoma; assay: Antitumor activity in Ehrlich's ascites adenocarcinoma; format: in vivo, Barbados mice; conditions: experimental animals, n = 10
Description: The antitumor activity of the compositions were studied in models of Ehrlich's ascites carcinoma in young Barbados mice of both sexes with weights between 15-17 g (68 individuals), which were kept on a vivarium diet.
45 mice were inoculated from a mouse with adenocarcinoma using an insulin syringe with 0.1 mL ascitic fluid in the region of the liver.
Ten mice were administered Antican (see Table 8).

[4] = FDA statistics, third stage of clinical tests; cited from earlier work

Row | Structure (SMILES) | Number of Live Cells after Incubation, % ([1]; dose 2 μg/mL) [%] | Number of Live Cells after Incubation, ±1000 ([1]; dose 2 μg/mL) [Millions] | Number of Live Cells after Incubation, % ([1]; dose 4 μg/mL) [%] | Number of Live Cells after Incubation, ±1000 ([1]; dose 4 μg/mL) [Millions] | Number of Live Cells after Incubation, % ([1]; dose 6 μg/mL) [%] | Number of Live Cells after Incubation, ±1000 ([1]; dose 6 μg/mL) [Millions] | Number of Live Cells after Incubation, % ([1]; dose 8 μg/mL) [%] | Number of Live Cells after Incubation, ±1000 ([1]; dose 8 μg/mL) [Millions] | Number of Live Cells after Incubation, % ([1]; dose 10 μg/mL) [%] | Number of Live Cells after Incubation, ±1000 ([1]; dose 10 μg/mL) [Millions] | Number of Live Cells after Incubation, % ([1]; dose 12 μg/mL) [%] | Number of Live Cells after Incubation, ±1000 ([1]; dose 12 μg/mL) [Millions] | Weight of Animal, After Treatment ([2]; 100 μg/kg parenterally twice a day for two weeks, n = 7) [g] | mice died ([2]; after treatment, n = 7) | Weight of Animal, Before Treatment ([2]; before treatment, n = 7) [g] | Animal Survival ([2]; benzidine skin sarcoma, n = 10) [days] | Time of Death of Animals after the First Injection, Average Value ([3]; Liposomes +) [days] | Time of Death of Animals after the First Injection, Average Value ([3]; Liposomes −) [days] | average effectiveness [4] [%]
1 | CC(=O)O[C@@]12CO[C@@H]1C[C@H](O)[C@@]1(C)C(=O)[C@H](O)C3=C(C)[C@@H](OC(=O)[C@H](O)[C@@H](NC(=O)OC(C)(C)C)c4ccccc4)C[C@@](O)([C@@H](OC(=O)c4ccccc4)[C@H]21)C3(C)C [Taxotere] | 100 | 150000 | 98 | 150000 | 97 | 145000 | 89 | 135000 | 82 | 130000 | 94 | 153000 | 23 ± 1.1 | 2 | 28 ± 1.2 | 28 ± 1.1 | 15 ± 0.5 | 14 ± 0.12 | 
2 | CN1CC[C@]23c4c5ccc(O)c4O[C@H]2[C@@H](O)C=C[C@H]3[C@H]1C5 [morphine] |  |  |  |  |  |  |  |  |  |  |  |  |  |  |  |  |  |  | 75
